Results from publication PMC10331583, “Control of fibrosis with enhanced safety via asymmetric inhibition of prolyl‐tRNA synthetase 1” (EMBO Molecular Medicine, 2023).
Several values for one entry are separate records, joined by “and”; a condition that tells them apart may be missing. Equal values may be shown once. Read-outs that look alike come from different tables or passages of the source.

Columns and labels:
WI‐26 VA4 cells [1] = test: Collagen ELISA (secreted pro‐collagen I)
[2] = tested on: TNT Quick Coupled Transcription/Translation System (luciferase synthesis); type: biochemical
WI‐26 VA4 cells [3] = test: Puromycin incorporation assay; type: cell-based, human
Procedure: After being rinsed with cold PBS twice, the cells were collected and resuspended in 200 μl of the carbonate bicarbonate buffer (Sigma Aldrich, C3041‐50CAP) with protease inhibitor. The cell lysates were obtained by sonication and centrifugation at 20,000 g for 15 min at 4°C. After protein quantification using a Pierce™ BCA Protein Assay Kit (Thermo Fisher Scientific, 23225), 400 ng of the proteins was coated to ELISA plates for 18 h at 4°C. […] The plates were rinsed with the washing buffer for three times after each antibody incubation step. […] The amount of puromycin incorporated in proteins was determined by measuring the absorbance at 450 nm (reference wavelength at 620 nm). Experimental values marked in red with strikethrough text in the Figure Source Data file were excluded from the analysis. These values were determined by considering the values of biological and technical replicates under the same condition, as well as the values at the former and later chemical concentrations.

[4] = log(inhibitor) vs. response, variable slope (four parameters), concentration in nM

## Cc1c(Cl)ccc2c1ncn2CC(=O)C[C@H]1NCCC[C@@H]1O [DWN11748]
WI‐26 VA4 cells [1]; 3 nM, 0.003 µM
  Collagen, % of control (single replicates per experiment): 95.16 % of control and 105.95 % of control and 100.28 % of control and 91.81 % of control and 92.46 % of control and 107.08 % of control and 97.10 % of control and 100.74 % of control and 124.62 % of control and 100.86 % of control
WI‐26 VA4 cells [1]; 100 nM, 0.1 µM
  Collagen, % of control (single replicates per experiment): 102.93 % of control and 54.86 % of control and 79.76 % of control and 92.40 % of control and 101.85 % of control and 87.72 % of control and 81.93 % of control and 104.58 % of control and 120.36 % of control
WI‐26 VA4 cells [1]; Fig 5E
  CC50/collagen IC50: 5.39
WI‐26 VA4 cells [1]; Homo sapiens, WI26VA4, read-out: Collagen IC50 (best-fit value), log(inhibitor) vs. response, variable slope (four parameters) (converted)
  IC50: 267 nM
WI‐26 VA4 cells [1]; Homo sapiens, WI26VA4, read-out: Collagen, % of control (single replicates per experiment), 30 nM
  activity at 0.03 µM: 104%
WI‐26 VA4 cells [1]; Homo sapiens, WI26VA4, read-out: Collagen, % of control (single replicates per experiment), 300 nM
  activity at 0.3 µM: 46.5%
WI‐26 VA4 cells [1]; Homo sapiens, WI26VA4, read-out: Collagen, % of control (single replicates per experiment), 1000 nM
  activity at 1 µM: 7.82%
WI‐26 VA4 cells [1]; Homo sapiens, WI26VA4, read-out: Collagen, % of control, average, 3 nM, average
  activity at 0.003 µM: 102%
WI‐26 VA4 cells [1]; Homo sapiens, WI26VA4, read-out: Collagen, % of control, average, 10 nM, average
  activity at 0.01 µM: 100%
WI‐26 VA4 cells [1]; Homo sapiens, WI26VA4, read-out: Collagen, % of control, average, 30 nM, average
  activity at 0.03 µM: 97.7%
WI‐26 VA4 cells [1]; Homo sapiens, WI26VA4, read-out: Collagen, % of control, average, 100 nM, average
  activity at 0.1 µM: 88.9%
WI‐26 VA4 cells [1]; Homo sapiens, WI26VA4, read-out: Collagen, % of control, average, 300 nM, average
  activity at 0.3 µM: 45.3%
WI‐26 VA4 cells [1]; Homo sapiens, WI26VA4, read-out: Collagen, % of control, average, 1000 nM, average
  activity at 1 µM: 9.08%
WI‐26 VA4 cells [1]; Homo sapiens, WI26VA4, read-out: Collagen, % of control, average, 3000 nM, average
  activity at 3 µM: 2.58%
WI‐26 VA4 cells [1]; Homo sapiens, WI26VA4, read-out: Collagen, % of control, average, 10000 nM, average
  activity at 10 µM: 2.33%
WI‐26 VA4 cells [1]; log(inhibitor) vs. response, variable slope (four parameters)
  Collagen HillSlope (best-fit value): -2.011
WI‐26 VA4 cells [1]; [4]
  Collagen LogIC50 (best-fit value): 2.427
WI‐26 VA4 cells [1]; relative to HF, Fig 5E
  Relative (CC50)/(collagen IC50): 1.61
[2]; 20 nM, Experiment #1, replicates, 0.02 µM
  TNT-luciferase % of control: 124.31 % of control and 118.51 % of control and 107.73 % of control
[2]; 20 nM, Experiment #2, replicates, 0.02 µM
  TNT-luciferase % of control: 122.22 % of control and 112.59 % of control and 102.96 % of control
[2]; 20 nM
  TNT-luciferase % of control, average: 114.72 % of control
[2]; 60 nM, Experiment #1, replicates, 0.06 µM
  TNT-luciferase % of control: 118.51 % of control and 116.02 % of control and 106.08 % of control
[2]; 60 nM, Experiment #2, replicates, 0.06 µM
  TNT-luciferase % of control: 117.78 % of control and 113.33 % of control and 103.70 % of control
[2]; 60 nM
  TNT-luciferase % of control, average: 112.57 % of control
[2]; 200 nM, Experiment #1, replicates, 0.2 µM
  TNT-luciferase % of control: 119.34 % of control and 112.71 % of control and 116.02 % of control
[2]; 200 nM, Experiment #2, replicates, 0.2 µM
  TNT-luciferase % of control: 136.30 % of control and 122.22 % of control and 131.11 % of control
[2]; 200 nM
  TNT-luciferase % of control, average: 122.95 % of control
[2]; 600 nM, Experiment #1, replicates, 0.6 µM
  TNT-luciferase % of control: 122.65 % of control and 113.54 % of control and 107.73 % of control
[2]; 600 nM, Experiment #2, replicates, 0.6 µM
  TNT-luciferase % of control: 109.63 % of control and 101.48 % of control and 108.89 % of control
[2]; 600 nM
  TNT-luciferase % of control, average: 110.65 % of control
[2]; 2000 nM, Experiment #1, replicates, 2 µM
  TNT-luciferase % of control: 77.24 % of control and 79.06 % of control and 67.79 % of control
[2]; 2000 nM, Experiment #2, replicates, 2 µM
  TNT-luciferase % of control: 73.56 % of control and 76.30 % of control and 68.37 % of control
[2]; 2000 nM
  TNT-luciferase % of control, average: 73.72 % of control
[2]; 6000 nM, Experiment #1, replicates, 6 µM
  TNT-luciferase % of control: 17.73 % of control and 16.82 % of control and 16.99 % of control
[2]; 6000 nM, Experiment #2, replicates, 6 µM
  TNT-luciferase % of control: 12.15 % of control and 12.07 % of control and 13.19 % of control
[2]; 6000 nM
  TNT-luciferase % of control, average: 14.83 % of control
[2]; 20000 nM, Experiment #1, replicates, 20 µM
  TNT-luciferase % of control: 0.54 % of control and 0.58 % of control and 0.61 % of control
[2]; 20000 nM, Experiment #2, replicates, 20 µM
  TNT-luciferase % of control: 0.11 % of control and 0.0948 % of control and 0.12 % of control
[2]; 20000 nM
  TNT-luciferase % of control, average: 0.35 % of control
[2]; 60000 nM, Experiment #1, replicates, 60 µM
  TNT-luciferase % of control: 0.02 % of control (2×) and 0.0164 % of control
[2]; 60000 nM, Experiment #2, replicates, 60 µM
  TNT-luciferase % of control: 0.000642 % of control and -0.00528 % of control and -0.00499 % of control
[2]; 60000 nM
  TNT-luciferase % of control, average: 0.00775 % of control
[2]; 200000 nM, Experiment #1, replicates, 200 µM
  TNT-luciferase % of control: 0.00754 % of control and 0.000331 % of control and -0.000994 % of control
[2]; 200000 nM, Experiment #2, replicates, 200 µM
  TNT-luciferase % of control: 0.0019 % of control and 0.00487 % of control and -0.000321 % of control
[2]; 200000 nM
  TNT-luciferase % of control, average: 0.00222 % of control
[2]; [4]
  TNT-luciferase LogIC50 (best-fit value): 3.407
[2]; log(inhibitor) vs. response, variable slope (four parameters), unit from head concentration (nM), read-out: TNT-luciferase IC50 (best-fit value)
  IC50: 2550 nM
WI‐26 VA4 cells [3]; 300 nM, 0.3 µM
  Puromycin, % of control, single replicate: 100.32 % of control and 98.22 % of control and 104.21 % of control and 104.56 % of control and 103.89 % of control and 104.45 % of control and 100.10 % of control and 97.92 % of control
WI‐26 VA4 cells [3]; 1000 nM, 1 µM
  Puromycin, % of control, single replicate: 97.71 % of control and 98.10 % of control and 102.31 % of control and 107.16 % of control and 101.57 % of control and 105.82 % of control and 108.83 % of control
WI‐26 VA4 cells [3]; 3000 nM, 3 µM
  Puromycin, % of control, single replicate: 32.63 % of control
WI‐26 VA4 cells [3]; 5000 nM, 5 µM
  Puromycin, % of control, single replicate: 22.79 % of control and 22.67 % of control and 25.49 % of control and 25.64 % of control and 24.99 % of control and 25.25 % of control and 25.95 % of control and 25.31 % of control
